The text below walks through data of article PMC6270011, “Design and Synthesis of Arylthiophene-2-Carbaldehydes via Suzuki-Miyaura Reactions and Their Biological Evaluation” (Molecules, 2013).

Structures are written as SMILES.

In this assay the target is urease enzyme (Canavalia ensiformis, UniProt P07374). Conditions: for %age Activity at 25 μg (urease inhibition): 25 µg/mL; for %age Activity at 50 μg (urease inhibition): 50 µg/mL.
Chain of urease enzyme (P07374 whole entry, looked up): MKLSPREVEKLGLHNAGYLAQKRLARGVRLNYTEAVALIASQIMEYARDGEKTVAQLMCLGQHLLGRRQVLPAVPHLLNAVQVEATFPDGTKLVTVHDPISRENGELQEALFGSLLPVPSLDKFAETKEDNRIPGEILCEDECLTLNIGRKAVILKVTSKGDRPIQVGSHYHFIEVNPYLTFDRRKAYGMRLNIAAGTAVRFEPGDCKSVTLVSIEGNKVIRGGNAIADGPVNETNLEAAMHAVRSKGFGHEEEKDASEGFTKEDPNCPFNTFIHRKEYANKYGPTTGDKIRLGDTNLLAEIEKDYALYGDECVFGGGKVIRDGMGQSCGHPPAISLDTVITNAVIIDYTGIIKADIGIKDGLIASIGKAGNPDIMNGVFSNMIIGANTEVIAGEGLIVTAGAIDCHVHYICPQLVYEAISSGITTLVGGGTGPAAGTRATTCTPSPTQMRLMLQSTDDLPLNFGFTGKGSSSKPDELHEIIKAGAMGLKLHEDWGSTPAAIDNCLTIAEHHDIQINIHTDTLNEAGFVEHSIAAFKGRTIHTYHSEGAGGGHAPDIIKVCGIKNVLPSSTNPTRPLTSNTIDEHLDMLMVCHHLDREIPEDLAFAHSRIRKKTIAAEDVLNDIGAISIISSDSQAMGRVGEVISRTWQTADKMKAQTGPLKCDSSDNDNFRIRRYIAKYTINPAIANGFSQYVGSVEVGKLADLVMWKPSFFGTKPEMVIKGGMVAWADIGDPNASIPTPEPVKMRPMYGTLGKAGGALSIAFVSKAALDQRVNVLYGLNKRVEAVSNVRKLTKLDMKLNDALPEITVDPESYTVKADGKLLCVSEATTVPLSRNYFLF

Regarding `O=Cc1cc(-c2ccccc2)cs1` [2a, 4-Phenylthiophene-2-carbaldehyde], the “%age Activity at 25 μg (urease inhibition)” value is 45 ± 0.0162% and the “%age Activity at 50 μg (urease inhibition)” value was determined as 86.9 ± 0.012%.
Consider `O=Cc1cc(-c2cc(C(F)(F)F)cc(C(F)(F)F)c2)cs1` [2b, 4-(3,5-Bis(trifloromethyl)phenyl)thiophene-2-carbaldehyde], for which the “%age Activity at 25 μg (urease inhibition)” value stood at 35 ± 0.014% and the “%age Activity at 50 μg (urease inhibition)” value amounted to 87.0 ± 0.084%.
On to `O=Cc1cc(-c2ccc(Cl)s2)cs1` [2c], for which the “%age Activity at 25 μg (urease inhibition)” value was determined as 44 ± 0.0042% and the “%age Activity at 50 μg (urease inhibition)” value was 87.8 ± 0.006%.
Take `N#Cc1cc(-c2csc(C=O)c2)cc(C(F)(F)F)c1` [2d, 3-(5-Formylthiophene-3-yl)-5-(trifloromethyl)benzonitrile]: the “%age Activity at 25 μg (urease inhibition)” value came to 37 ± 0.0042% and the “%age Activity at 50 μg (urease inhibition)” value worked out at 88.7 ± 0.005%.
Regarding `Cc1ccc(-c2csc(C=O)c2)cc1` [2e, 4-p-Tolylthiophene-2-carbaldehyde], the “%age Activity at 25 μg (urease inhibition)” value worked out at 44.5 ± 0.057% and the “%age Activity at 50 μg (urease inhibition)” value was determined as 76.5 ± 0.05%.
The corresponding values for `COc1ccc(-c2csc(C=O)c2)cc1` [2f, 4-(4-Methoxyphenyl)thiophene-2-carbaldehyde] are 42.3 ± 0.0007% and 80.2 ± 0.0017%.
Taken in the same sequence, the figures for `Cc1cc(C)cc(-c2csc(C=O)c2)c1` [2g, 4-(3,5-Dimethylphenyl)thiophene-2-carbaldehyde] were 42.5 ± 0.0070% and 87.2 ± 0.5%.
With `O=Cc1cc(-c2ccc(Cl)c(Cl)c2)cs1` [2h, 4-(3,4-Dichlorophenyl)thiophene-2-carbaldehyde], the “%age Activity at 25 μg (urease inhibition)” value is listed as 44 ± 0.084% and the “%age Activity at 50 μg (urease inhibition)” value was determined as 86.4 ± 0.44%.
In the case of `O=Cc1cc(-c2ccc(F)c(Cl)c2)cs1` [2i, 4-(3-Chloro-4-fluorophenyl)thiophene-2-carbaldehyde], the “%age Activity at 25 μg (urease inhibition)” value was found to be 46.2 ± 0.0042% and the “%age Activity at 50 μg (urease inhibition)” value was 90.6 ± 0.05%.
With `Cc1ccc(-c2csc(C=O)c2)s1` [2j, 5-Methyl-2,3-bisthiophene-5-carbaldehyde], the “%age Activity at 25 μg (urease inhibition)” value is listed as 2 ± 0.219% and the “%age Activity at 50 μg (urease inhibition)” value worked out at 9.7 ± 0.2%.
